Source: US20100184213A1, “APOCRINE CELL LINE” (priority 2007, published 2010)

Legend:
[1] = system: proliferating apocrine cultures (ASG5); assay: Short circuit current (Isc) in Ussing chamber, proliferating apocrine cultures on Transwells; format: cell-based, human; details: for Peak agonist Isc response, Control / Peak agonist Isc response, Chloride-free: proliferating (ASG5), Carbachol 20 μM; for Peak agonist Isc response, Control / Peak agonist Isc response after amiloride pre-treatment, Control: chloride-containing buffer; for Peak agonist Isc response, Control / Peak agonist Isc response, Chloride-free / Peak agonist Isc response after amiloride pre-treatment, Control / Peak agonist Isc response after amiloride pre-treatment, Chloride-free: Histamine 200 μM, ATP 100 μM; for Peak agonist Isc response after amiloride pre-treatment, Control / Peak agonist Isc response after amiloride pre-treatment, Chloride-free / ΔIsc (change of resting short circuit current): proliferating apocrine; for Peak agonist Isc response after amiloride pre-treatment, Control / Peak agonist Isc response after amiloride pre-treatment, Chloride-free: Carbachol 200 μM, Isoprenaline ≧1 μM, LBK 170 nM; for ΔIsc (change of resting short circuit current): furosemide 1 mM basolateral
Method: (§1) After 13-18 days, confluent ASG5 cultures were passaged onto Transwell collagen-coated permeable supports (0.33 cm^2 area, Costar, cat. no. 3495, High Wycombe, Bucks, UK). This involved incubation in 2% EDTA for 20 minutes, followed by trypsin (0.5%)-EDTA (0.2%) for approximately five minutes. 3×10^5 cells were transferred onto each Transwell supplemented with WEM. The Transwell supports were suspended in 24-well plates in 0.6 ml of the same medium. For primary cultures, only first passage cells were used in experiments. The medium bathing cultures on Transwells was changed every two days.
(§2) Transepithelial resistance (TER) across epithelia on Transwells was monitored using ‘chopstick’ electrodes (WPI, Alresford, Hants, UK) connected to an ohmmeter. The TER was estimated by subtracting the measurement for a moistened filter blank. At peak TER, the Transwell supports were mounted in an Ussing Chamber. Epithelia were bathed in a modified Krebs buffer, oxygenated and maintained at 37° C., pH 7.4, with 95% O2/5% CO2. The buffer consisted of (mM): NaCl, 117; KCl, 4.7; CaCl2, 1.5; MgSO4, 1.2; NaHCO3, 25; and glucose, 11.1. Voltage and current electrodes (calomel and silver/silver chloride respectively, ABB Kent Taylor, Stonehouse, Glos, UK), connected to a voltage/current clamp were extended into the bath via bridges containing agar dissolved in 3 M potassium chloride.
(§3) Voltage electrodes were balanced in the absence of a Transwell and fluid resistance between the voltage electrodes was compensated for by the injection of an arbitrary DC current. After mounting a Transwell the epithelium was short-circuited, the current allowed to stabilise, typically for 15 minutes. Given the rarity of apocrine material, drugs were typically added in succession as disclosed by Brayden et al (1988) J. Physiol, 405: 657-675, Pedersen et al (1992) Exp. Physiol, 77; 863-871, and Shen et al, (1994) Am. J. Physiol, 266: L493-501 and changes in short circuit current (I^sc) recorded. The duration of experiments was typically 15-60 min. TER was estimated using Ohm's Law, routinely by clamping the voltage at ±10 mV and measuring the current required to achieve this. Unless otherwise stated all drugs listed in the legend were added to the basolateral side, except for amiloride that was added to the apical side. Amiloride is an inhibitor of the epithelial Na^+ channel (ENaC) and the Na^+/H^+ exchanger.
(§4) Chloride substitution experiments were carried out in Krebs buffer in which sodium gluconate was substituted for NaCl, potassium gluconate for KCl and CaSO4 for CaCl2. Glucose-free experiments were carried out with 11.1 mM mannitol as a replacement to maintain osmolality. Experiments in which barium was used as an inhibitor of potassium channels were carried out in the absence of sulphate ions, such that MgCl2 replaced MgSO4.

[2] = system: primary apocrine cultures; assay: Short circuit current (Isc) in Ussing chamber, primary apocrine cultures on Transwells; format: cell-based, human; details: for Peak agonist Isc response, Control / Peak agonist Isc response after amiloride pre-treatment, Control / Peak agonist Isc response, Chloride-free / Peak agonist Isc response after amiloride pre-treatment, Chloride-free / ΔIsc (change of resting short circuit current): primary apocrine; for Peak agonist Isc response, Control / Peak agonist Isc response after amiloride pre-treatment, Control: chloride-containing buffer; for Peak agonist Isc response, Control / Peak agonist Isc response, Chloride-free: Carbachol 20 μM; for Peak agonist Isc response, Control / Peak agonist Isc response after amiloride pre-treatment, Control / Peak agonist Isc response, Chloride-free / Peak agonist Isc response after amiloride pre-treatment, Chloride-free: Histamine 200 μM, ATP 100 μM; for Peak agonist Isc response after amiloride pre-treatment, Control / Peak agonist Isc response after amiloride pre-treatment, Chloride-free: Carbachol 200 μM, Isoprenaline ≧1 μM, LBK 170 nM; for ΔIsc (change of resting short circuit current): amiloride 10 μM apical, furosemide 1 mM basolateral
Method: as §1, §2, §3, §4

[3] = system: primary cultures of apocrine secretory coils; assay: TPA treatment of primary cultures of apocrine secretory coils in MEGM; format: cell-based, human; details: TPA 250 nM in MEGM; 3-4 days after addition
Method: A proliferating apocrine cell line was derived from primary cultures of apocrine secretory coils. After 7 days culture in MEGM, the potent phorbol ester, TPA (phorbol-12-myristate-13 acetate; ex Calbiochem, Nottingham, UK) was included in the medium at a concentration of 250 nM. […] Commonly, the ester comprises at least aliphatic substituent particularly suitably at the 12 and/or 13 positions, such as a long chain alkyl (C7 to C24) and optionally also a short chain alkyl (C2 to C6).
However, the upper differentiated layers were removed by repeated washing to leave a proliferative monolayer of cells still attached to the flask. Cells of the proliferative layer were passaged into 96 well plates to generate clonal cell lines. Cells were maintained, passaged and continued to grow in MEGM containing TPA for approximately 2 months. After this period cells were cultured in MEGM alone and monitored for continued proliferation. Initially, many subclones continued to grow, but by the end of the next 10 passages, the majority had begun to senesce. One culture, in particular, ASG5, continued to grow and has now been maintained in culture, proliferating over more than 40 passages with no signs of a reduction in growth rate. […] This culture continues to proliferate in the absence of TPA, can survive cryopreservation and is considered to be stable.

[4] = system: eccrine sweat gland cells; assay: Short circuit current (Isc) in Ussing chamber, primary eccrine sweat gland cells; format: cell-based; details: amiloride 10 μM apical

Row | Compound | Peak agonist Isc response, Control [1] [μA cm^−2] | Peak agonist Isc response, Chloride-free ([1]; chloride-free buffer) [μA cm^−2] | Peak agonist Isc response after amiloride pre-treatment, Control [1] [μA cm^−2] | Peak agonist Isc response after amiloride pre-treatment, Chloride-free ([1]; chloride-free buffer) [μA cm^−2] | Peak agonist Isc response, Control [2] [μA cm^−2] | Peak agonist Isc response after amiloride pre-treatment, Control [2] [μA cm^−2] | Peak agonist Isc response, Chloride-free ([2]; chloride-free buffer) [μA cm^−2] | Peak agonist Isc response after amiloride pre-treatment, Chloride-free ([2]; chloride-free buffer) [μA cm^−2] | other results
1 | Nc1ncnc2c1ncn2[C@@H]1O[C@H](COP(=O)(O)OP(=O)(O)OP(=O)(O)O)[C@@H](O)[C@H]1O [ATP, Adenosine triphosphate] | 6.3 ± 1.8 | 4.0 ± 0.5 | 1.8 ± 0.3 | 0.8 ± 0.2 | 7.4 ± 1.8 | 4.9 ± 0.7 | 2.9 ± 0.9 | 4.3 ± 2.4 | –
2 | CC(C)NCC(O)c1ccc(O)c(O)c1 (stereo not shown) [Isoprenaline] | – | – | 1.8 ± 0.4 | 0.8 ± 0.2 | – | 1.8 ± 0.4 | – | 0.7 ± 0.3 | –
3 | CCCCCCCCCCCCCC(=O)O[C@@H]1[C@@H](C)[C@@]2(O)[C@@H](C=C(CO)C[C@]3(O)C(=O)C(C)=C[C@@H]23)[C@@H]2C(C)(C)[C@]12OC(C)=O [TPA, phorbol-12-myristate-13 acetate] | – | – | – | – | – | – | – | – | effect on culture morphology (multilayering) [3]: induced premature multilayering
4 | C[N+](C)(C)CCOC(N)=O [Carbachol] | 4.0 ± 0.7 | 3.0 ± 0.8 | 2.4 ± 0.6 | 1.3 ± 0.3 | 3.9 ± 0.7 | 6.3 ± 1.4 | 0.7 ± 0.6 | 1.7 ± 1.2 | –
5 | NS(=O)(=O)c1cc(C(=O)O)c(NCc2ccco2)cc1Cl [Furosemide] | – | – | – | – | – | – | – | – | Inhibition by furosemide of agonist response, ΔIsc ([1]; 90 µM): −1.2 ± 0.3 μA cm^−2; Inhibition by furosemide of agonist response, ΔIsc ([1]; furosemide 90 μM, agonist ATP 100 μM, proliferating): −1.2 ± 0.3 μA cm^−2; Inhibition by furosemide of agonist response, ΔIsc ([1]; furosemide 90 μM, agonist Carbachol ≧20 μM, proliferating): −1.1 ± 0.4 μA cm^−2; Inhibition by furosemide of agonist response, ΔIsc ([1]; furosemide 90 μM, agonist Histamine 200 μM, proliferating): −1.0 ± 0.4 μA cm^−2; magnitude of Isc response to carbachol after furosemide pre-treatment (FIG. 4B versus FIG. 3) ([1]; furosemide 1 mM pre-treatment, CCh 20 μM): reduces the magnitude of response; ΔIsc (change of resting short circuit current) ([1]; amiloride 10 μM apical): −0.8 ± 0.3 μA cm^−2; agonist Isc responses on addition of furosemide after agonist stimulation ([1]; transformed apocrine cultures): rapid reduction in responses; Inhibition by furosemide of agonist response, ΔIsc ([2]; 90 µM): 0.8 ± 0.2 μA cm^−2; Inhibition by furosemide of agonist response, ΔIsc ([2]; furosemide 90 μM, agonist ATP 100 μM, primary): −2.6 ± 0.5 μA cm^−2; Inhibition by furosemide of agonist response, ΔIsc ([2]; furosemide 90 μM, agonist Carbachol ≧20 μM, primary): −2.0 ± 0.5 μA cm^−2; Inhibition by furosemide of agonist response, ΔIsc ([2]; furosemide 90 μM, agonist Histamine 200 μM, primary): −1.3 ± 0.2 μA cm^−2; agonist Isc responses on addition of furosemide after agonist stimulation ([2]; primary apocrine cultures): rapid reduction in responses; ΔIsc (change of resting short circuit current) [2]: −0.5 ± 0.2 μA cm^−2
6 | N=C(N)NC(=O)c1nc(Cl)c(N)nc1N [Amiloride] | – | – | – | – | – | – | – | – | IC50 ([1]; Homo sapiens, apical amiloride, read-out: IC50 for amiloride (dose response curves, resting Isc)): 2 to 4 µM; carbachol stimulation of Isc after amiloride pre-treatment (FIG. 4A versus FIG. 3) ([1]; amiloride 10 μM apical, CCh 20 μM): reduced; effect of amiloride pre-treatment on peak Isc responses to CCh, His and ATP (FIG. 2) ([1]; amiloride 10 μM apical, CCh 20 μM, His 200 μM, ATP 100 μM basolateral): significantly reduced; reduction of basal Isc under chloride-free conditions ([1]; amiloride 10 μM, chloride-free buffer, proliferating cultures): 2.5 μA cm^−2; reduction of resting Isc ([1]; apically applied amiloride 10 μM, n=20, P<0.001): 4.5±1.0 μA cm^−2; ΔIsc (change of resting short circuit current) ([1]; amiloride 10 μM apical): −4.2 ± 1.0 μA cm^−2; reduction of basal Isc under chloride-free conditions ([2]; amiloride 10 μM, chloride-free buffer, primary cultures): 3.6 μA cm^−2; ΔIsc (change of resting short circuit current) [2]: −6.0 ± 0.9 μA cm^−2; ΔIsc (change of resting short circuit current) [4]: −7.1 ± 0.7 μA cm^−2
7 | NCCc1c[nH]cn1 [Histamine] | 4.8 ± 1.3 | 3.3 ± 0.8 | 1.9 ± 0.4 | 1.0 ± 0.2 | 6.4 ± 1.3 | 4.2 ± 0.5 | 1.7 ± 0.5 | 2.4 ± 1.4 | –
8 | L-bradykinin (RPPGFSPFR; Bradykinin; UniProt P01042 381-389, looked up) [LBK, agonist added basolaterally] | – | – | 1.6 ± 0.3 | 0.9 ± 0.3 | – | 2.0 ± 0.5 | – | 0.6 ± 0.4 | –
